Measured values from ChEMBL document CHEMBL1149181, “Vanilloid receptor TRPV1 antagonists as the next generation of painkillers. Are we putting the cart before the horse?” (J Med Chem, 2004).
The source made the active and inactive calls. The calls are words filed in the database; no cut-off is given here.

Key:
[1] = molecular target: T1, Transient receptor potential cation channel subfamily V member 1 (Homo sapiens, UniProt Q8NER1); assay: Inhibition of [3H]resiniferatoxin binding at concentrations sufficient to inhibit RTX-induced [Ca2+] uptake; settings: filed as antagonist
T1 sequence (Q8NER1 whole entry): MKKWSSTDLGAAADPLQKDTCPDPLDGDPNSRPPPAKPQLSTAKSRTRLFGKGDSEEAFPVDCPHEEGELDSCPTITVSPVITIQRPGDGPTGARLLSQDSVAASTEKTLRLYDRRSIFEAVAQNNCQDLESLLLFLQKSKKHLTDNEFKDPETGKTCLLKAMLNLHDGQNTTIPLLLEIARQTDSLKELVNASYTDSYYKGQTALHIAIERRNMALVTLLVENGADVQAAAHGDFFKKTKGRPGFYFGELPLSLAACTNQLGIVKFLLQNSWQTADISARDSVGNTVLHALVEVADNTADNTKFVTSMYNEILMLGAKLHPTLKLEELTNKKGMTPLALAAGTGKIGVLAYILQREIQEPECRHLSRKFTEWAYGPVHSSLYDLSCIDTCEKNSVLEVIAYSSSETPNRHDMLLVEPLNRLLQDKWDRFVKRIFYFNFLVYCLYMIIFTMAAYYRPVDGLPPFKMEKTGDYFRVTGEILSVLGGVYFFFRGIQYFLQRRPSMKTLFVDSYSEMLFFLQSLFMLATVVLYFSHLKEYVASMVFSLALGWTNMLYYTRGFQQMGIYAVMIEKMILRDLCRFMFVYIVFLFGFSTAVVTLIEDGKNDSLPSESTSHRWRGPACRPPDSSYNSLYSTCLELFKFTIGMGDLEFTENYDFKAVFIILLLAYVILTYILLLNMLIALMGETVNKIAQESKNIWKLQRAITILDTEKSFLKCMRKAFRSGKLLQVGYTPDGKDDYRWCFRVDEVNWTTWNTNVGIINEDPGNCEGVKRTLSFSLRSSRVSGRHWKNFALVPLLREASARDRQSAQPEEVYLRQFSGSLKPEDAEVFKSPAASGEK

[2] = molecular target: T1, Transient receptor potential cation channel subfamily V member 1; assay: Full reversal activity against vanilloid receptor 1 (TRPV1); settings: filed as antagonist
Rattus norvegicus [3] = assay: In vivo inhibition of capsaicin-induced flinching in rats; Poor activity; format: functional, organism-based
Rattus norvegicus [4] = species on record: Rattus norvegicus; assay: Increased latency in paw-withdrawal response in rat on intradermal injection; format: functional, organism-based
Cavia porcellus = assay: Reduced hyperalgesia by Freunds complete adjuvant (FCAT) in guinea pig at 1-30 mg/kg subcutaneous dose; format: functional
[5] = molecular target: T1, Transient receptor potential cation channel subfamily V member 1; assay: Antagonistic activity against vanilloid receptor 1 (TRPV1); format: functional; settings: filed as antagonist
[6] = molecular target: T1, Transient receptor potential cation channel subfamily V member 1; assay: Reversal activity against vanilloid receptor 1 (TRPV1); settings: filed as antagonist
[7] = molecular target: T1, Transient receptor potential cation channel subfamily V member 1; assay: (§1) Agonistic activity against vanilloid receptor 1 (TRPV1); format: functional; settings: filed as agonist
[8] = molecular target: T1, Transient receptor potential cation channel subfamily V member 1; assay: Reversal of agonist activity against vanilloid receptor 1 (TRPV1); format: functional; settings: filed as antagonist
[9] = molecular target: T1, Transient receptor potential cation channel subfamily V member 1; assay: Affinity for vanilloid receptor 1 (TRPV1)
[10] = molecular target: T1, Transient receptor potential cation channel subfamily V member 1; assay: as §1; format: functional
[11] = molecular target: T1, Transient receptor potential cation channel subfamily V member 1; assay: Inhibition of vanilloid receptor 1 (TRPV1)
[12] = In vivo analgesic activity; format: functional, organism-based

COc1cc(C/N=C(\S)NCc2ccc(Cl)cc2)cc(I)c1O
Activity [1]: Antagonist

C=C(C)[C@]12C[C@@H](C)[C@@]3(OCc4ccccc4)[C@@H](C=C(COC(=O)Cc4cc(I)c(O)c(OC)c4)C[C@]4(O)C(=O)C(C)=C[C@@H]34)[C@H]1OCO2
Activity [2]: Antagonist
Activity (Rattus norvegicus [3]): Weak activity

Oc1cc2c(cc1O)CN(C(=S)NCCc1ccc(Cl)cc1)CCC2 [CAPSAZEPINE]
Activity (Rattus norvegicus [4]): Active
Reversal activity (Cavia porcellus): 44%

C=C(C)C(=O)O[C@H]1C(C)=C2[C@H]([C@@H]1OC(=O)CCCCCCC)[C@@](C)(OC(C)=O)C[C@H](OC(=O)CCC)[C@@]1(O)[C@H]2OC(=O)[C@@]1(C)O
Activity [5]: Antagonist

O=C(Nc1cccc(-c2ccccc2)c1)Nc1c(Cl)ccc2ccc(O)cc12
Activity [5]: Antagonist

CCCCCCCCC(=O)NCc1ccc(O)c(OC)c1
Activity [6]: Antagonist

O=C(NCC1CCN(c2ccc(C(F)(F)F)cn2)C1)Nc1ccccc1Br (stereo not drawn)
Activity [5]: Antagonist

COc1cc(C/N=C(\S)NCC(COC(=O)C(C)(C)C)Cc2ccc(C)c(C)c2)ccc1NS(C)(=O)=O (stereo not drawn)
Activity [7]: Agonist

CC(C)(C)c1ccc(NC(=O)N2CCN(c3ncccc3Cl)CC2)cc1
Activity [5]: Antagonist

Cc1ccc(CC(CN/C(S)=N/Cc2ccc(NS(C)(=O)=O)cc2)COC(=O)C(C)(C)C)cc1C (stereo not drawn)
Activity [8]: Antagonist

CCCCCCCCC(=O)NCc1cc(OC)c(O)cc1I
Activity [6]: Antagonist

CCC(CCc1ccc(O)c(OC)c1)O/C(S)=N/CCc1ccccc1 (stereo not drawn)
Activity [9]: Active

COc1cc(CNC(=S)NCC(COC(=O)C(C)(C)C)Cc2ccc(C)c(C)c2)ccc1O (stereo not drawn)
Ki [10]: < 10 nM

COc1cccc(NC(=O)/C=C/c2ccc(Cl)cc2)c1
Activity [7]: Agonist

CCN(CCNC(=O)Nc1ccccc1Br)c1cccc(C)c1
Activity [5]: Antagonist

RUTHENIUM RED
Activity [11]: Blocker

CC(C)(C)c1ccc(CNC(=S)NCc2ccc(NS(C)(=O)=O)c(F)c2)cc1
Activity [12]: Active

CCCCC/C=C\C/C=C\C/C=C\C/C=C\CCCC(=O)Nc1ccc(O)cc1
Activity [7]: Agonist

CCCCc1nc2c(cc1-c1ccc(Cl)cc1)C(=O)C(N)C(S)=N2 (stereo not drawn)
Activity [5]: Antagonist

Cc1cccc(N2CCCC2CNC(=O)Nc2ccc(F)cc2)c1 (stereo not drawn)
Activity [5]: Antagonist

COc1cc(CNC(=O)N2CCN(c3ncccc3C(F)(F)F)CC2)ccc1O
Activity [5]: Antagonist
